# Like-named read-outs stand apart in the source and are kept apart here.
# Experiments:
# LIN28B protein = biological target: T1, LIN28B protein (Homo sapiens, UniProt Q6ZN17); assay: Western blotting of Lin28B protein in cancer cell models; assay type: cell-based; settings: YP-MEL, BT-37, NT-2 cells; at the tested dosages
# T1 construct: in a panel of endogenously LIN28 expressing cancer cell models; endogenous in cells; host or cells: YP-MEL, BT-12, BT-37, NT-2 (NTERA)
# T1 sequence (Q6ZN17 1-250): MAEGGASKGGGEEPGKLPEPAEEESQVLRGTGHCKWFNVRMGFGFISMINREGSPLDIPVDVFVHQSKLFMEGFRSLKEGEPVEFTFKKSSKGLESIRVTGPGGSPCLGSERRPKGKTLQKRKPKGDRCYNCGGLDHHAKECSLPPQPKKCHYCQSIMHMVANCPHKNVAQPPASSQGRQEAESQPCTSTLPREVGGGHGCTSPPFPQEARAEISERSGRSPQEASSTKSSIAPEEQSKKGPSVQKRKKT
# Description: FIG. 5: Compound of formula (I) mixture, containing the two isomers (P1+P2) causes significant reduction in Lin28A protein from 5 μM onwards, in a panel of endogenously LIN28 expressing cancer cell models. […] LIN28A and LIN28B expression profile in pediatric CNS cancer cell lines, 96-hr post-treatment with Compound of formula (I). SDS-PAGE on 10% polyacrylamide gel of total cell lysates from untreated cells harvested at 80-90% confluency. Samples loaded with volumes for 20 μg protein. LIN28A and LIN28B proteins were detected using the anti-LIN28A antibody (#8706; Cell Signaling Technology) and anti-LIN28B antibody (#11965; Cell Signalling Technology) at 1:2000 dilutions. T47D: adult breast cancer (LIN28A expressing); YPMEL: malignant melanoma derived from Neurocutaneous Melanosis (NCM) (Lin28A and Lin28B expressing); BT-12: pediatric atypical-teratoid rhabdoid tumor (AT/RT). […]
# The proteins were extracted from the same samples as the RNA using the RIPA lysis buffer. […] The proteins were detected using the anti-Lin28A antibody (#8706; Cell Signaling Technology), anti-Lin28B antibody (#11965, Cell Signaling Technology) the anti-beta-actin antibody at respectively 1:2000, 1:2000 and 1:5000 dilutions.
# Solubility = assay type: physicochemical
# NT-2 testicular tumor = NT-2 testicular tumor xenograft in SCID mice; assay type: in vivo; settings: male SCID mice; for growth of NT-2 tumors: every 2 days
# Description: FIG. 14A-C: Male SCID NT-2 testicular tumor bearing mice treated with 4 mg/kg Compound of formula (I) (P1 version) via oral route of administration (P.O). […] Tumor areas were measured with a Vernier caliper (prior to each treatment cycle). Animals were euthanized when the control (0.1% DMSO:PBS) treated mice reached the defined endpoint of 225 mm^2. Data representative of at least 5 independent experiments. […] (B) is a graph depicting percentage change of tumour volume versus days after the first treatment. (C) is a graph depicting percentage survival versus days after the first treatment.
# FIG. 15A-D: Male SCID NT-2 testicular tumor bearing mice treated with 4 mg/kg Compound of formula (I) (P1 version) via intraperitoneal route of administration (I.P). […] Tumor areas were measured with a Vernier caliper (prior to each treatment cycle). Animals were euthanized when the control (0.1% DMSO:PBS) treated mice reached the defined endpoint of 225 mm^2. Data representative of at least 5 independent experiments. […] (B) is a graph depicting percentage of tumour size versus days after the first treatment. (C) is a graph depicting percentage survival versus days after the first treatment. (D) is a photograph showing excised tumours.
# FIG. 16A&B: Male SCID NT-2 testicular tumor bearing mice treated with 4 mg/kg Compound of formula (I) (P1 isomer) via intravenous route of administration (I.V). […] Tumor areas were measured with a Vernier caliper (prior to each treatment cycle). Animals were euthanized when the control (0.1% DMSO:PBS) treated mice reached the defined endpoint of 225 mm^2. Data representative of at least 5 independent experiments. (A) is a photograph showing excised tumours. (B) is graph depicting percentage of tumor size versus number of treatments.
# All animal procedures were carried out in accordance with the guidelines of the Canadian Council on Animal Care and the NIH guidelines on the care and use of laboratory animals. All protocols were reviewed and approved by the Animal Care Committee of the University of Calgary (Protocol approval number: AC21-0147). Six- to eight-week-old female or male CB17 severe combined immunodeficiency (SCID) mice (Charles River Laboratories, Saint-Constant, QC, Canada) were subcutaneously injected in the right flank with 3×10^6 YP-MEL or NT-2 cells suspended in 0.1 mL sterile PBS. After tumor injection, animals with detectable tumor growth of at least 50 mm^2 were randomized into groups. The groups were treated with either 0.1% DMSO:PBS vehicle or 4 mg/kg of Compound of formula (I) dissolved in the vehicle, intraperitoneally (I.P), orally (P.O) or intravenously (I.V). Animals and respective cages were monitored for food and bedding supplies daily; doses were injected every 2 days and tumor areas were measured with a Vernier caliper (prior to each treatment cycle). When vehicle treated tumors reached the defined endpoint of 225 mm^2, every mouse in the group were euthanized. Tumors were excised and immediately imaged and processed for western blotting or fixed in paraformaldehyde for toxicology evaluation. (A)
compound,measurement,setting,value
CC[C@H](C)[C@H](NC(=O)[C@H](Cc1ncc[nH]1)NC(=O)c1cccc(C(N)=O)c1)C(=O)Nc1ccc(O)c(-c2nc3ccccc3s2)c1 [Compound P1],Lin28B expression,LIN28B protein,remained unaltered
same,solubility,"Solubility; DMSO, organic solvent or mixture, read-out: solubility in DMSO",100 mg/mL
same,solubility,"Solubility; organic solvent or mixture, DMSO, freeze dried, RP-HPLC purified P1, read-out: solubility in DMSO",10 mM
same,solubility,"Solubility; water/PBS/culture medium, aqueous buffer, read-out: solubility in water/PBS/culture medium",0.05 mM
same,treated animals that survived tumor-free for 120 days,NT-2 testicular tumor; 4 mg/kg I.P,at least 50%
same,growth of NT-2 tumors,NT-2 testicular tumor; 4 mg/kg I.P,significantly reduced the growth
same,growth of NT-2 tumors,NT-2 testicular tumor; 4 mg/kg I.V,significantly reduced the growth
same,tumor shrinkage,"NT-2 testicular tumor; 4 mg/kg I.V, with only 4 doses",in some cases showed complete shrinkage
same,growth of NT-2 tumors,NT-2 testicular tumor; 4 mg/kg P.O,significantly reduced the growth

# Source: US20230391824A1, “RATIONALE, DESIGN, SYNTHESIS AND VALIDATION OF A SMALL MOLECULE ANTICANCER AGENT” (priority 2021, published 2023)
